Assay results as given in US7354928B2, “Small molecule inhibitors targeted at Bcl-2” (The Regents of the University of Michigan, priority 2001, dated 2008).
Read-outs that look alike come from different tables or passages of the source. Values belong to the molecule of their own block, whether it stands above or below them.

Columns and labels:
GST-fused Bcl-2 protein = target: T1, GST-fused Bcl-2 protein (Homo sapiens, UniProt P10415); experiment: Bcl-2 fluorescence polarization (FP) competitive binding assay with Flu-Bak-BH3 peptide; details: read-out: IC50, inhibition of Bak BH3 peptide binding to Bcl-2, 290 nM tracer, 270 nM Bcl-2 protein
T1 construct: purchased Santa Cruz Biotechnology (Santa Cruz, Calif.)
T1 sequence (P10415 1-205 limits assumed): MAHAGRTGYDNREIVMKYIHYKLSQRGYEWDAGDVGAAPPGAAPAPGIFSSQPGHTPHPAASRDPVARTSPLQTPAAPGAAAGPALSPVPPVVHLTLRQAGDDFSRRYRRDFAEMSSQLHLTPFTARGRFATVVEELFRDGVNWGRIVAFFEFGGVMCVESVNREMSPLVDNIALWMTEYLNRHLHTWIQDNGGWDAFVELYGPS

Bcl-2/Bcl-XL = details: reported by Tzung et al.; read-out: IC50, inhibitor of Bcl-2/Bcl-XL; cited from earlier work
HL-60 cells = experiment: Cell viability, trypan blue exclusion, HL-60; format: cell-based; details: Homo sapiens; HL-60, trypan blue exclusion, 24 hours; read-out: IC50, inhibition of cell viability
Experimental: FIG. 3 illustrated the effects of Compound 6 on cell viability. Cells are plated in 24-well plates, incubated with the compound at appropriate concentrations for […]. Cell viability is determined by trypan blue exclusion with hemocytometer. Percent of viable cells, as compared with untreated cells, is plotted against drug concentration.
First, in some embodiments, the trypan blue exclusion method was used to determine the effect of an inhibitor on cell viability in which cells were treated with the inhibitor for 24 hours. Second, in some other embodiments, the MTT assay was used to determine the activity of an inhibitor on cell proliferation where cells were treated for four days. All the 7 active compounds were tested using the HL-60 cell line that expresses the highest level of Bcl-2 protein among all the cancer cell lines examined.
Cells and Reagents. Human breast cell lines (T47D, MDA-231, MDA-453), and human Leukemia cells HL-60 were obtained from the American Type Culture Collection (ATCC). All tumor cell lines were grown and maintained in RPMI 1640 medium containing 10% FBS, except MDA-MB-231, which used Dulbecco's modified Eagle's medium as basal medium. Cultures were maintained in a humidified incubator at 37° C. and 5% CO2.
Cell viability was determined by the trypan blue assay. […] Trypan blue dye was added 24 hours later and the percentage of viable cells were determined.

[1] = Solubility in DMSO or chloroform; format: physicochemical
Experimental: Compound 5. FABMS 613.2 (M+H)^+. Insoluble in either DMSO or chloroform.
Subsequently ^1H NMR spectra for the five active compounds were performed. The ^1H NMR spectrum for compound 5 is not determined, because it is insoluble in either DMSO or chloroform. The ^1H NMR spectra for compounds 6, 7, 8 and 11 are consistent with their chemical structures.

Molecule: COc1ccc2c(c1)CCc1cc(OC)ccc1[N+]([O-])=[N+]2[O-] [Compound 6a, 2,9-Dimethoxy-11,12-dihydrodibenzo [c,g] [1,2] diazocine-5,6-dioxide]
melting point: 136 to 138 °C

Molecule: antimycin A
IC50 (Bcl-2/Bcl-XL): 2 µM

Molecule: O=C1c2cc(Br)ccc2-c2ccc3c4ccc5c6c(ccc(c7ccc1c2c73)c64)C(=O)c1cc(Br)ccc1-5 [Compound 5]
solubility [1]: Insoluble
solubility ([1]; listed as compound 5): insoluble

Continued, values first:

IC50 (GST-fused Bcl-2 protein): 1.6 µM
Molecule: Nc1nc(-c2ccccc2)nc2c1[n+]([O-])c1ccccc1[n+]2[O-] [Compound 7]

IC50 (HL-60 cells): ≥ 50 µM
Molecule: Brc1cccc[n+]1-c1ccc2cc(-[n+]3ccccc3Br)ccc2c1 [Compound 10]
